Laboratory results reported in PMC10535824, “Tryptophan Substitution in CJ-15,208 (cyclo[Phe-D-Pro-Phe-Trp]) Introduces δ-Opioid Receptor Antagonism, Preventing Antinociceptive Tolerance and Stress-Induced Reinstatement of Extinguished Cocaine-Conditioned Place Preference” (Pharmaceuticals, 2023).
Where two headings read alike, the source gives them in different places. Square brackets hold non-standard residues; d marks the D form. Peptide text beside a SMILES is read from it. 1Nal = N[C@@H](Cc1cccc2ccccc12)C(=O)O; 2Nal = N[C@@H](Cc1ccc2ccccc2c1)C(=O)O; d1Nal = N[C@H](Cc1cccc2ccccc12)C(=O)O; d2Nal = N[C@H](Cc1ccc2ccccc2c1)C(=O)O; Bta = N[C@@H](Cc1csc2ccccc12)C(=O)O; dBta = N[C@H](Cc1csc2ccccc12)C(=O)O

Experiments:
[1] = system: C57BL/6J mice; test: 55 °C warm-water tail-withdrawal assay, antinociception after i.c.v. administration; assay type: in vivo, mouse; parameters: key: ~: Maximum antinociception not achieved, precluding calculation of an ED50 value
Procedure: For intracerebroventricular administration, the macrocyclic peptides were dissolved in dimethyl sulfoxide (DMSO), followed by addition of sterile saline (0.9%) so that the final vehicle was 50% DMSO and 50% saline, and the i.c.v. injections were performed as described previously. This concentration of DMSO was not observed to have antinociceptive or behavioral effects in previous use. All solutions for animal administration were prepared fresh daily.
The 55 °C warm-water tail-withdrawal assay was performed in mice as previously described, with the latency of the mouse to withdraw its tail from the water taken as the endpoint (a cut-off time of 15 s was used in this assay). Antinociception was calculated according to the following formula: % antinociception = 100 × (test latency − control latency)/(15 − control latency). Tail-withdrawal data points are the means of 8–16 mice, unless otherwise indicated, with SEM shown by error bars.
All dose–response lines were analyzed by regression, and ED50 (effective dose producing 50% antinociception) values and 95% C.I. were determined using individual data points from graded dose–-response curves with Prism 8.0 software (GraphPad, La Jolla, CA, USA). Percent antinociception was used to determine within-group effects and to allow comparison to baseline latency in tail-withdrawal experiments. The statistical significance of differences between ED50 values was determined by evaluation of the ED50 value shift via nonlinear regression modeling with Prism software. Significant differences in behavioral data were analyzed by ANOVA (one-way or two-way with repeated measures (RM), as appropriate). Significant results were further analyzed with Sidak’s, Tukey’s, or Dunnett’s multiple comparison post hoc tests, as appropriate. Data for conditioned place preference experiments were analyzed by one-way or two-way RM ANOVA, with analyses examining the main effect of conditioned place preference phase (e.g., pre- or post-conditioning) and the interaction of drug pretreatment and/or exposure. All data are presented as mean ± SEM, with significance set at p < 0.05.

[2] = target: T1, rat MOR (Rattus norvegicus, UniProt P33535); conditions: parent peptides; mean ± SEM; cited from earlier work
T1 construct: expressed in transfected cells

[3] = system: MOR, KOR, DOR; test: opioid receptor involvement in antinociception (KO mice / selective antagonist pretreatment), tail-withdrawal assay; assay type: in vivo, mouse; conditions: dose producing maximum antinociception, i.c.v., KOR KO mice or β-FNA, nor-BNI, naltrindole pretreatment
Procedure: Except for the Bta^4 analog, contributions of the MOR and KOR were assessed in knockout (KO) mice for those receptors; DOR contribution to the antinociceptive activity of the analogs was assessed by pretreating mice with naltrindole (20 mg/kg, i.p., −20 min) prior to administration of analog (Figure 3).
Assessment of DOR involvement in the agonist activity of each macrocyclic peptide was performed by pretreating additional wild-type mice with a single dose of naltrindole (20 mg/kg, i.p.) 20 min in advance of administration of the macrocyclic peptide.

[4] = target: T2, rat KOR (Rattus norvegicus, UniProt P34975); conditions: parent peptides; mean ± SEM; cited from earlier work
T2 construct: expressed in transfected cells

[5] = target: T3, mouse DOR (Mus musculus, UniProt P32300); conditions: parent peptides; mean ± SEM; cited from earlier work
T3 construct: expressed in transfected cells

[6] = target: T4, KOR (Mus musculus, UniProt P33534); test: antagonism of U50,488 antinociception, tail-withdrawal assay; assay type: in vivo; conditions: peptide i.c.v. (3-300 nmol, Figure 4) 140 min before U50,488 10 mg/kg i.p.
T4 construct: endogenous in cells; host or cells: living adult male C57BL/6J mice
Procedure: ; at this time, the antinociceptive activity of the analogs had dissipated. Antinociception produced by the established opioid agonists was then measured 40 min after their administration. The dose response of KOR or DOR antagonism produced by selected analogs was further determined by evaluating antinociception after administration of one of three additional i.c.v. doses of the analog.

[7] = target: T1, rat MOR; test: radioligand equilibrium competition binding, MOR; conditions: CHO cell membranes, [3H]DAMGO; mean ± SEM, at least three experiments
Procedure: (§1) Opioid receptor affinities were determined by equilibrium radioligand binding assays as previously described with membranes from Chinese hamster ovary (CHO) cells stably expressing rat KOR, rat MOR, or mouse DOR using the radioligands [^3H]diprenorphine, [^3H][D-Ala^2,N-MePhe^4,glyol]enkephalin (DAMGO), and [^3H][D-Pen^2,D-Pen^5]enkephalin (DPDPE), respectively. Following determination of IC50 values by nonlinear regression using Prism software (GraphPad Software Co., La Jolla, CA, USA), Ki values were calculated using the Cheng–Prusoff equation [57]. The results are presented as the mean ± SEM from at least three separate experiments, each performed in triplicate.

[8] = target: T2, rat KOR; test: radioligand equilibrium competition binding, KOR; conditions: CHO cell membranes, [3H]diprenorphine; mean ± SEM, at least three experiments
Procedure: as §1

[9] = target: T3, mouse DOR; test: radioligand equilibrium competition binding, DOR; conditions: CHO cell membranes, [3H]DPDPE; mean ± SEM, at least three experiments (D-Nal(1′)^4 n = 2)
Procedure: as §1

[10] = system: C57BL/6J mice; test: acute antinociceptive tolerance (dosing at 0 and 8 h); conditions: i.c.v.; for Naïve ED50 (95% C.I.): naïve mice
Procedure: The degree of tolerance was calculated from the shift in ED50 value from the singly to repeatedly treated condition.

[11] = system: C57BL/6J mice; test: respiration rate, CLAMS/Oxymax; assay type: in vivo, mouse; conditions: i.c.v.; [Nal(2′)^4]CJ-15,208 100 nmol, morphine 30 nmol; 80 min
Procedure: (§2) Respiration rates (in breaths per minute) and animal locomotive activity (as ambulation) were assessed using the Oxymax/CLAMS system (Columbus Instruments, Columbus, OH, USA) as described previously. Mice were habituated to their individual sealed housing chambers for 60 min before testing. […] Pressure monitoring within the sealed chambers measured frequency of respiration. Infrared beams located in the floor measured locomotion as number of beam breaks. Respiration and locomotive data were averaged over 20 min periods for 80 min post-injection of the test compound. Data are presented as % vehicle response ± SEM; ambulation, or breaths per minute.

[12] = system: C57BL/6J mice; conditions: mouse, in vivo
[13] = system: C57BL/6J mice; test: spontaneous locomotor activity (ambulation), CLAMS/Oxymax; assay type: in vivo, mouse; conditions: i.c.v.; [Nal(2′)^4]CJ-15,208 100 nmol, morphine 30 nmol; 80 min
Procedure: as §2

[14] = metabolism by mouse liver microsomes; assay type: in vitro ADME; conditions: read-out: t1/2 in mouse liver microsomes
Procedure: The metabolism of the macrocyclic tetrapeptides by mouse liver microsomes was evaluated as previously described, with the amount of peptide remaining determined by LC-MS/MS [55] using [D-MeAla^2]CJ-15,208 [53] as the internal standard.

[15] = antinociception at peak response
[16] = acute tolerance, dosing at 0 and 8 h

Molecule	ED50 (and 95% C.I.) i.c.v. [1, 15]	Ki [7]	Ki [8]	Ki [9]	other results
cyclo(F[dP]FW) [CJ-15,208]	1.74 (0.62–4.82) nmol	–	–	–	Ki [2]: 451 ± 114 nM; Receptors Involved in antinociception [3]: KOR, MOR; Ki [4]: 27.4 ± 4.6 nM; Ki [5]: 1720 ± 350 nM; antagonism of U50,488 antinociception (KOR antagonism) [6]: displayed significant KOR antagonism
O=C1N[C@H](Cc2ccc3ccccc3c2)C(=O)N[C@@H](Cc2ccccc2)C(=O)N2CCC[C@@H]2C(=O)N[C@H]1Cc1ccccc1 [D-Nal(2′)^4, [D-Nal(2′)^4]CJ-15,208] (cyclo(F[dP]F[d2Nal]))	31.2 (22.5–41.9) nmol	63.8 ± 5 nM	12.3 ± 1.8 nM	> 10000 nM	–
CN1CC[C@]23c4c5ccc(O)c4O[C@H]2[C@@H](O)C=C[C@H]3[C@H]1C5 [Morphine, reference compound]	2.35 (1.13–5.03) nmol	–	–	–	Naïve ED50 (95% C.I.) [10]: 2.35 (1.13–5.03) nmol; effect on respiration rate vs. vehicle [11]: produced significant, time-dependent respiratory depression; conditioned place preference or aversion ([12]; C57BL/6J): significant (p = 0.03) place preference; effect on ambulation vs. vehicle [13]: significantly increased ambulation
O=C1N[C@@H](Cc2ccccc2)C(=O)N2CCC[C@@H]2C(=O)N[C@@H](Cc2ccccc2)C(=O)N[C@H]1Cc1csc2ccccc12 [Bta^4, [Bta^4]CJ-15,208] (cyclo(F[dP]F[Bta]))	13.2 (9.62–18.2) nmol	90.3 ± 38.5 nM	51.9 ± 4.8 nM	1600 ± 360 nM	half-life [14]: 28 min
O=C1N[C@H](Cc2cccc3ccccc23)C(=O)N[C@@H](Cc2ccccc2)C(=O)N2CCC[C@@H]2C(=O)N[C@H]1Cc1ccccc1 [D-Nal(1′)^4, [D-Nal(1′)^4]CJ-15,208] (cyclo(F[dP]F[d1Nal]))	–	101 ± 25 nM	21.4 ± 0.7 nM	> 10000 nM	–
O=C1N[C@H](Cc2csc3ccccc23)C(=O)N[C@@H](Cc2ccccc2)C(=O)N2CCC[C@@H]2C(=O)N[C@H]1Cc1ccccc1 [D-Bta^4, [D-Bta^4]CJ-15,208] (cyclo(F[dP]F[dBta]))	–	84.2 ± 11.8 nM	4.29 ± 0.38 nM	> 10000 nM	–
O=C1N[C@@H](Cc2ccccc2)C(=O)N2CCC[C@@H]2C(=O)N[C@@H](Cc2ccccc2)C(=O)N[C@H]1Cc1ccc2ccccc2c1 [Nal(2′)^4, [Nal(2′)^4]CJ-15,208] (cyclo(F[dP]F[2Nal]))	19.5 (15.8–24.0) nmol	583 ± 59 nM	358 ± 137 nM	3300 ± 360 nM	half-life [14]: > 60 min; Fold-Shift, Naïve ED50 vs. Second ED50 [10, 16]: 0.37; leftward shift in the dose–response curve of the second dose [10, 16]: 2.7 fold; Naïve ED50 (95% C.I.) [10]: 19.5 (15.8–24.0) nmol; effect on respiration rate vs. vehicle [11]: did not significantly impair breathing; conditioned place preference or aversion [12]: no significant preference or aversion; effect on ambulation vs. vehicle [13]: not significant
cyclo(F[dP]F[dW]) [[D-Trp]CJ-15,208]	–	–	–	–	ED50 (and 95% C.I.) i.c.v. ([1]; symbol where no ED50 could be calculated): ~; Ki [2]: 259 ± 29 nM; Ki [4]: 21.8 ± 4.8 nM; Ki [5]: 4190 ± 860 nM; antagonism of U50,488 antinociception (KOR antagonism) [6]: significantly antagonized U50,488-induced antinociception
O=C1N[C@@H](Cc2ccccc2)C(=O)N2CCC[C@@H]2C(=O)N[C@@H](Cc2ccccc2)C(=O)N[C@H]1Cc1cccc2ccccc12 [Nal(1′)^4, [Nal(1′)^4]CJ-15,208] (cyclo(F[dP]F[1Nal]))	0.24 (0.19–0.31) nmol	110 ± 16 nM	103 ± 6 nM	1920 ± 120 nM	–
